Measurements: patent US9637483B2, “Heterocyclic compound” (TAKEDA PHARMACEUTICAL COMPANY LIMITED, priority 2013, dated 2017)

Tests used:
Format in all cases: biochemical
JAK1 = molecular target: T1, JAK1 (Homo sapiens, UniProt P23458); test: JAK1 enzyme inhibition test (LANCE method); details: 1 μM test compound; read-out: JAK1 enzyme inhibitory activity (%, 1 μM)
T1 construct: purchased Invitrogen
Method in brief: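 TR-FRET (LANCE) with ULight-JAK1 peptide (300 nM working solution) and ATP (150 μM working solution) in HEPES pH 7.5, MgCl2, EGTA, DTT buffer; 1 h at room temperature. EDTA stop plus Eu-anti-phosphotyrosine antibody, 665 nm read after 1 h. Inhibition relative to enzyme-free wells as 100%.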

TYK2 = molecular target: T2, TYK2 (Homo sapiens, UniProt P29597); test: TYK2 enzyme inhibition test (LANCE method); details: 1 μM test compound; read-out: TYK2 enzyme inhibitory activity (%, 1 μM)
T2 construct: purchased Invitrogen
Method in brief: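 Recombinant TYK2 (375 ng/mL working solution) with ULight-JAK1 peptide (300 nM working solution) and ATP (30 μM working solution) in HEPES pH 7.5 buffer with MgCl2, EGTA, DTT, Tween20, BSA, reacted 1 h at RT. EDTA-stopped, Eu-anti-phosphotyrosine TR-FRET read at 665 nm; inhibition relative to enzyme-free wells as 100%.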

JAK2 = molecular target: T3, JAK2 (Homo sapiens, UniProt O60674); test: JAK2 enzyme inhibition test (LANCE method); details: 1 μM test compound; read-out: JAK2 enzyme inhibitory activity (%, 1 μM)
T3 construct: purchased Invitrogen
Method in brief: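 Recombinant JAK2 (6 ng/mL solution) phosphorylated ULight-JAK1 peptide (300 nM solution) with ATP (45 μM solution) in pH 7.5 HEPES/MgCl2/DTT buffer for 1 hr at room temperature. After EDTA stop and europium anti-phosphotyrosine antibody for 1 hr, TR-FRET read at 665 nm; inhibition relative to enzyme-free wells as 100%.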

JAK3 = molecular target: T4, JAK3 (Homo sapiens, UniProt P52333); test: JAK3 enzyme inhibition test (LANCE method); details: 1 μM test compound; read-out: JAK3 enzyme inhibitory activity (%, 1 μM)
T4 construct: purchased Invitrogen
T4 sequence (P52333 1-1124): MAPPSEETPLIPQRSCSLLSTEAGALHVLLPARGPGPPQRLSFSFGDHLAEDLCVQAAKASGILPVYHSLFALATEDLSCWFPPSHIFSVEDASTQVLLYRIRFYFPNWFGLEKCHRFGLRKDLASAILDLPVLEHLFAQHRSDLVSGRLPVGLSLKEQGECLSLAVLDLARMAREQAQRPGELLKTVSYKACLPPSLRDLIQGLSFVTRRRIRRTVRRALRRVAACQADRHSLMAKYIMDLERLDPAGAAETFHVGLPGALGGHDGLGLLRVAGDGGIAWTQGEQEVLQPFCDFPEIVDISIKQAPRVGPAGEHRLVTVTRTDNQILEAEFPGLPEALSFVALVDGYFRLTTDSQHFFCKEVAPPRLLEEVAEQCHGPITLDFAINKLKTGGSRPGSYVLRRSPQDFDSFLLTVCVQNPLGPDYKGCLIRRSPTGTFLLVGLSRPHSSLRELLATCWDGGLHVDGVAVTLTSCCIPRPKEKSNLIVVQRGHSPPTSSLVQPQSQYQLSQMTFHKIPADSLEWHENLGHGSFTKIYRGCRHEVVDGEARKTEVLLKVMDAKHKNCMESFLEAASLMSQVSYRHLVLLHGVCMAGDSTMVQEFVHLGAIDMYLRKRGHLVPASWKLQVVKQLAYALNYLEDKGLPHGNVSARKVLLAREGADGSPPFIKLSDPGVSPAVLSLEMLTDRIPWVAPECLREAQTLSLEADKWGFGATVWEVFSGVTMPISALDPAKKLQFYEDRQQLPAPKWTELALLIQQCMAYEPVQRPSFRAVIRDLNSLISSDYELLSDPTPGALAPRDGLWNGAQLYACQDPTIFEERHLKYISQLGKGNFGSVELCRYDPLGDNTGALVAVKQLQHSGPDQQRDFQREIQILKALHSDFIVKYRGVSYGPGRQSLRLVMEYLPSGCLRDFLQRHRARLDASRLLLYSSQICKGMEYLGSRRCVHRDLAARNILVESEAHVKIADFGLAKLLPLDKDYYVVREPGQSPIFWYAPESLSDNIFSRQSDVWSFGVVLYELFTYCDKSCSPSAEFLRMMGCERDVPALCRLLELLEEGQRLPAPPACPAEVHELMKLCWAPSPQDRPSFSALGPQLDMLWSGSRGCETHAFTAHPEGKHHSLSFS
Method in brief: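 Recombinant JAK3 (12 ng/mL solution) with ULight-JAK1 peptide (300 nM solution) and ATP (15 μM solution) in HEPES pH 7.5 buffer, 1 h at room temperature. EDTA stop with Eu-anti-phosphotyrosine antibody; TR-FRET at 665 nm. Inhibition relative to enzyme-free wells as 100%.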

T2 sequence (P29597 whole entry): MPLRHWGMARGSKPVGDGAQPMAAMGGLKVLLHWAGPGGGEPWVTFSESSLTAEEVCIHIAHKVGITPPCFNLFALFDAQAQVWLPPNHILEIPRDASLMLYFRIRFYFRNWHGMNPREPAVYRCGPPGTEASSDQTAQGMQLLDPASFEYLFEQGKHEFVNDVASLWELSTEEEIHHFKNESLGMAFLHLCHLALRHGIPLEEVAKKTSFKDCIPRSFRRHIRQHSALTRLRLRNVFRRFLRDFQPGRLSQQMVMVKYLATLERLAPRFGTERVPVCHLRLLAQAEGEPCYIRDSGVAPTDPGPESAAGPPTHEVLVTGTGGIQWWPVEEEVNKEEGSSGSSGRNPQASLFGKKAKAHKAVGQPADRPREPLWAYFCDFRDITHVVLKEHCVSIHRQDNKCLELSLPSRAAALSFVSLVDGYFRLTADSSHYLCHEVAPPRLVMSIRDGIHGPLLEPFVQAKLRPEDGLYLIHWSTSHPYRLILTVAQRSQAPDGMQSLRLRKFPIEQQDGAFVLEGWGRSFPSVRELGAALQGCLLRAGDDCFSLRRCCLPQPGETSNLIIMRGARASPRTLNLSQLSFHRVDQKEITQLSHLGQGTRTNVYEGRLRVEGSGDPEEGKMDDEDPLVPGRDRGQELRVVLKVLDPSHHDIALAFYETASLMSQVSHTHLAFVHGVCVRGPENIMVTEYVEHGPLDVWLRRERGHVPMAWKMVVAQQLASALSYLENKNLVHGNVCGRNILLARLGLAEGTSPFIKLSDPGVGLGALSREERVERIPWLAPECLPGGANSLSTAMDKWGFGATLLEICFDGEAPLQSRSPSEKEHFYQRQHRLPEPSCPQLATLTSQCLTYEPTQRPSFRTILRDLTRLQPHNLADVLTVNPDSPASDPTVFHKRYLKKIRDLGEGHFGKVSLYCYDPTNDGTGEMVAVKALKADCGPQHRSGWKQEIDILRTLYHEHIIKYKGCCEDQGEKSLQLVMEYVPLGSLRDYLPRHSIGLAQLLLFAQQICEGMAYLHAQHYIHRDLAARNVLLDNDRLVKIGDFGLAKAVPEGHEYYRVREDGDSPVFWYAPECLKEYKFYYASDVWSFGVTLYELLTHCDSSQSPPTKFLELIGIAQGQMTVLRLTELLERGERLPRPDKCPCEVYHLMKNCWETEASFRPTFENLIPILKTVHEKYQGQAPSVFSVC
T1 sequence (P23458 whole entry): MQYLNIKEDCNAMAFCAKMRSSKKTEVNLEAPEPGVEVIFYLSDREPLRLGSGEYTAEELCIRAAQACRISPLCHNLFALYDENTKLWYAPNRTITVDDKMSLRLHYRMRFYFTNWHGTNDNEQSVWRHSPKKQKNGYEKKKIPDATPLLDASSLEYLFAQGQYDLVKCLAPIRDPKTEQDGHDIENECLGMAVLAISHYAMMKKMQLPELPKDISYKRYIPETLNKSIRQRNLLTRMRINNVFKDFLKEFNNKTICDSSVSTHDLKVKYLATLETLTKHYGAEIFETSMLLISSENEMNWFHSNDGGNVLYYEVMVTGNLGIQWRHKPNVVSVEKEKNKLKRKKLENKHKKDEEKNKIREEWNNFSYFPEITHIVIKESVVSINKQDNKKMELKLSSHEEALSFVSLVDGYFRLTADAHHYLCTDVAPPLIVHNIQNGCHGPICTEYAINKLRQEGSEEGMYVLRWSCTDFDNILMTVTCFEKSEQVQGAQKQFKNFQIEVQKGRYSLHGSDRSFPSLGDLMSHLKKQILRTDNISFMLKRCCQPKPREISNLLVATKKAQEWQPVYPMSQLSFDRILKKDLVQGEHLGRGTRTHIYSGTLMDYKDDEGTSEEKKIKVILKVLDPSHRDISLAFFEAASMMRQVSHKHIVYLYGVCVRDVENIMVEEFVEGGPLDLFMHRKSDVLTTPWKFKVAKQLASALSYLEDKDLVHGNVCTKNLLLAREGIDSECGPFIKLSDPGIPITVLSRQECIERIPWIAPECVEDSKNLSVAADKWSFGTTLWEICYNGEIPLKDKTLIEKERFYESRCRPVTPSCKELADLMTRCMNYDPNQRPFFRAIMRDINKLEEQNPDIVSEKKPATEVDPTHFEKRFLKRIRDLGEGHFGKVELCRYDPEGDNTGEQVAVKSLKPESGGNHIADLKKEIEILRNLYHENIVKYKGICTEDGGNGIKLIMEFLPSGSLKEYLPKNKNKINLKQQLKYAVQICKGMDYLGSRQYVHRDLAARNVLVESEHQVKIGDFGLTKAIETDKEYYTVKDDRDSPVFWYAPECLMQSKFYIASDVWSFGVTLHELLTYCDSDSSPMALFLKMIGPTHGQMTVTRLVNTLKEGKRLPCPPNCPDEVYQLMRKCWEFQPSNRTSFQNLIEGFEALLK
T3 sequence (O60674 whole entry): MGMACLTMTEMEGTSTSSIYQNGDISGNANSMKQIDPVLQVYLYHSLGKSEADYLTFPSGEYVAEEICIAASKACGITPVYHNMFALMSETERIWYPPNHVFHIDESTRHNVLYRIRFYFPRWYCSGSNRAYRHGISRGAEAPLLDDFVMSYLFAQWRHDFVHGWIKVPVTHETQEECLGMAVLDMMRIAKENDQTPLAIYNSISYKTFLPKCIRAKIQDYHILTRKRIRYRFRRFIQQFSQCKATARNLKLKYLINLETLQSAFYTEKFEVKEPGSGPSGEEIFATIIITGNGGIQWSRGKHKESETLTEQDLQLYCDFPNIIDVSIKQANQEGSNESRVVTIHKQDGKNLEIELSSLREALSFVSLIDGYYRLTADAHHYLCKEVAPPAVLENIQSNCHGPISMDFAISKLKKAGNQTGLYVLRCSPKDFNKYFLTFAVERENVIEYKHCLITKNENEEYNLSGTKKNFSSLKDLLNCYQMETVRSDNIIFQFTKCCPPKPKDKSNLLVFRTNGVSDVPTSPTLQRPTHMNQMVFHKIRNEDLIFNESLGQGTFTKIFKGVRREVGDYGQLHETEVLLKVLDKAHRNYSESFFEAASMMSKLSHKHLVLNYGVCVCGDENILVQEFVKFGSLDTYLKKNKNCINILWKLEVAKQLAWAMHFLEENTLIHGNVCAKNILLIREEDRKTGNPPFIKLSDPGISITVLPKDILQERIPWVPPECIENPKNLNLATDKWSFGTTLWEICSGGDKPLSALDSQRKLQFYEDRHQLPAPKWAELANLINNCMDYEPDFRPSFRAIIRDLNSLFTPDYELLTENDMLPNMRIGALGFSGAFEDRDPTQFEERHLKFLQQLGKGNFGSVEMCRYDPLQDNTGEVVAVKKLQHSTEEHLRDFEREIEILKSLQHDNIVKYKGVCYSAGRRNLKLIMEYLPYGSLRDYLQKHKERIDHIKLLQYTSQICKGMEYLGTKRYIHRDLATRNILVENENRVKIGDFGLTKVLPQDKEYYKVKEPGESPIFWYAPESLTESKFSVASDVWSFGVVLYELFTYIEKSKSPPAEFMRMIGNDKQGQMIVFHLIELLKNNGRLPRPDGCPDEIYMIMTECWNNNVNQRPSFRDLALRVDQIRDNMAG

Row | Structure (SMILES) | inhibition at 1 µM (JAK1) [%] | inhibition at 1 µM (TYK2) [%] | inhibition at 1 µM (JAK2) [%] | inhibition at 1 µM (JAK3) [%]
1 | CC(C)[C@H](C)n1cc(-c2cc(C(F)(F)F)n(C)n2)c2[nH]nc(N)c2c1=O [Example 42, 3-amino-5-((2S)-3-methylbutan-2-yl)-7-(1-methyl-5-(trifluoromethyl)-1H-pyrazol-3-yl)-1,5-dihydro-4H-pyrazolo[4,3-c]pyridin-4-one] | 96 | 98 | 96 | 99
2 | CC(C)[C@H](C)n1cc(-c2cc(C3CC3)n(C)n2)c2[nH]nc(N)c2c1=O [Example 43, 3-amino-7-(5-cyclopropyl-1-methyl-1H-pyrazol-3-yl)-5-((2S)-3-methylbutan-2-yl)-1,5-dihydro-4H-pyrazolo[4,3-c]pyridin-4-one] | 97 | 100 | 97 | 99
3 | CC(C)[C@H](C)n1cc(-c2cc(CN3CCCC3)n(C)n2)c2[nH]nc(N)c2c1=O [Example 44, 3-amino-5-((2S)-3-methylbutan-2-yl)-7-(1-methyl-5-(pyrrolidin-1-ylmethyl)-1H-pyrazol-3-yl)-1,5-dihydro-4H-pyrazolo[4,3-c]pyridin-4-one] | 90 | 101 | 96 | 99
4 | CC(C)[C@H](C)n1cc(-c2cc(C(=O)N3CCS(=O)(=O)CC3)n(C)n2)c2[nH]nc(N)c2c1=O [Example 45, 3-amino-7-(5-((1,1-dioxidothiomorpholin-4-yl)carbonyl)-1-methyl-1H-pyrazol-3-yl)-5-((2S)-3-methylbutan-2-yl)-1,5-dihydro-4H-pyrazolo[4,3-c]pyridin-4-one] | 98 | 100 | 99 | 99
5 | COCCN(C)C(=O)c1cc(-c2cn([C@@H](C)C(C)C)c(=O)c3c(N)n[nH]c23)nn1C [Example 46, 3-(3-amino-5-((2S)-3-methylbutan-2-yl)-4-oxo-4,5-dihydro-1H-pyrazolo[4,3-c]pyridin-7-yl)-N-(2-methoxyethyl)-N,1-dimethyl-1H-pyrazole-5-carboxamide] | 95 | 99 | 98 | 99
6 | CC(C)[C@H](C)n1cc(-c2cc(CN3CCS(=O)(=O)CC3)n(C)n2)c2[nH]nc(N)c2c1=O [Example 47, 3-amino-7-(5-((1,1-dioxidothiomorpholin-4-yl)methyl)-1-methyl-1H-pyrazol-3-yl)-5-((2S)-3-methylbutan-2-yl)-1,5-dihydro-4H-pyrazolo[4,3-c]pyridin-4-one] | 93 | 99 | 98 | 100
7 | CC(C)[C@H](C)n1cc(-c2cc(N3CCCCC3=O)n(C)n2)c2[nH]nc(N)c2c1=O [Example 48, 3-amino-5-((2S)-3-methylbutan-2-yl)-7-(1-methyl-5-(2-oxopiperidin-1-yl)-1H-pyrazol-3-yl)-1,5-dihydro-4H-pyrazolo[4,3-c]pyridin-4-one] | 94 | 99 | 97 | 100
8 | CC(C)[C@H](C)n1cc(-c2cc(N3CCOCC3=O)n(C)n2)c2[nH]nc(N)c2c1=O [Example 49, 3-amino-5-((2S)-3-methylbutan-2-yl)-7-(1-methyl-5-(3-oxomorpholin-4-yl)-1H-pyrazol-3-yl)-1,5-dihydro-4H-pyrazolo[4,3-c]pyridin-4-one] | 96 | 99 | 97 | 100
9 | CC(C)[C@H](C)n1cc(-c2cc(C(=O)N(C)C3CCCC3)n(C)n2)c2[nH]nc(N)c2c1=O [Example 50, 3-(3-amino-5-((2S)-3-methylbutan-2-yl)-4-oxo-4,5-dihydro-1H-pyrazolo[4,3-c]pyridin-7-yl)-N-cyclopentyl-N,1-dimethyl-1H-pyrazole-5-carboxamide] | 96 | 99 | 99 | 100
10 | CC(=O)NCC(C)(C)c1cc(-c2cn([C@@H](C)C(C)C)c(=O)c3c(N)n[nH]c23)nn1C [Example 51, N-(2-(3-(3-amino-5-((2S)-3-methylbutan-2-yl)-4-oxo-4,5-dihydro-1H-pyrazolo[4,3-c]pyridin-7-yl)-1-methyl-1H-pyrazol-5-yl)-2-methylpropyl)acetamide] | 97 | 99 | 97 | 97
11 | CC(C)[C@H](C)n1cc(-c2cc(CN3CCCC3=O)n(C)n2)c2[nH]nc(N)c2c1=O [Example 52, 3-amino-5-((2S)-3-methylbutan-2-yl)-7-(1-methyl-5-((2-oxopyrrolidin-1-yl)methyl)-1H-pyrazol-3-yl)-1,5-dihydro-4H-pyrazolo[4,3-c]pyridin-4-one] | 96 | 100 | 99 | 99
12 | CC(C)[C@H](C)n1cc(-c2cc(C(=O)N(C)C3CCOCC3)n(C)n2)c2[nH]nc(N)c2c1=O [Example 53, 3-(3-amino-5-((2S)-3-methylbutan-2-yl)-4-oxo-4,5-dihydro-1H-pyrazolo[4,3-c]pyridin-7-yl)-N,1-dimethyl-N-(tetrahydro-2H-pyran-4-yl)-1H-pyrazole-5-carboxamide] | 95 | 98 | 96 | 99
13 | CC(C)[C@H](C)n1cc(-c2cc(N3CCOC3=O)n(C)n2)c2[nH]nc(N)c2c1=O [Example 54, 3-amino-5-((2S)-3-methylbutan-2-yl)-7-(1-methyl-5-(2-oxo-1,3-oxazolidin-3-yl)-1H-pyrazol-3-yl)-1,5-dihydro-4H-pyrazolo[4,3-c]pyridin-4-one] | 98 | 98 | 98 | 99
14 | CC(C)[C@H](C)n1cc(-c2cc(N3CCCC3=O)n(C)n2)c2[nH]nc(N)c2c1=O [Example 55, 3-amino-5-((2S)-3-methylbutan-2-yl)-7-(1-methyl-5-(2-oxopyrrolidin-1-yl)-1H-pyrazol-3-yl)-1,5-dihydro-4H-pyrazolo[4,3-c]pyridin-4-one] | 98 | 99 | 98 | 99
15 | CC(C)[C@H](C)n1cc(-c2cc(C(C)(C)C(=O)N(C)C)n(C)n2)c2[nH]nc(N)c2c1=O [Example 56, 2-(3-(3-amino-5-((2S)-3-methylbutan-2-yl)-4-oxo-4,5-dihydro-1H-pyrazolo[4,3-c]pyridin-7-yl)-1-methyl-1H-pyrazol-5-yl)-N,N,2-trimethylpropanamide] | 70 | 98 | 94 | 94
